Measurements as given in patent US4248882A, “Treating diabetes-associated complications with hydantoin amines” (Pfizer Inc., priority 1980, dated 1981).
Counter-ions that a name gives are not always drawn.

Assays:
[1] = test system: sorbitol accumulation in the sciatic nerve; test: inhibition of sorbitol accumulation in the sciatic nerve of streptozotocinized (diabetic) rats; assay type: in vivo; settings: oral 0.25 mg/kg at 4, 8 and 24 hours following streptozotocin; sorbitol in sciatic nerves measured 27 hours after induction of diabetes; versus untreated animal
Procedure: The compounds of Example 2 and 4 were tested for their ability to reduce or inhibit sorbitol accumulation in the sciatic nerve of streptozotocinized (i.e. diabetic) rats by the procedure essentially described in U.S. Pat. No. 3,821,383. In the present study, the amount of sorbitol accumulation in the sciatic nerves was measured 27 hours after induction of diabetes. The compounds were administered orally at the dose levels of 0.25 mg/kg at 4, 8 and 24 hours following the administration of streptozotocin. The results obtained in this manner are presented below in terms of percent inhibition (%) afforded by the test compound as compared to the case where no compound was administered (i.e. the untreated animal, where sorbitol levels normally rise from approximately […]. tissue to as high as 400 mM/g. tissue in the 27 hour test period): […]

aldose reductase = test: inhibition of aldose reductase enzyme activity (partially purified enzyme from human placenta); assay type: biochemical; settings: percent inhibition of enzyme activity
Procedure: The compounds of Example 2 and 4 were tested for their ability to reduce or inhibit aldose reductase enzyme activity, following the procedure described in U.S. Pat. No. 3,821,383 and based on the procedure of Hayman et. al., Journal of Biological Chemistry, 240 877 (1965). The substrate employed was partially purified aldose reductase enzyme obtained from human placenta. The results obtained with each compound at a concentration of 10^-6 M are expressed as percent inhibition of enzyme activity.

| % Inhibition at 10^-6 M (aldose reductase) [%] | SMILES | % Inhibition at 0.25 mg/kg [1] [%] |
| --- | --- | --- |
| 58 | Nc1cc(Cl)cc2c1OCCC21NC(=O)NC1=O (stereo not shown) [Example 2, 8-Amino-6-chloro-spiro[4H-2,3-dihydro-1-benzopyran-4,4'-imidazolidine]-2',5'-dione hydrochloride] | 17 |
| 40 | Nc1cc(F)cc2c1OCC[C@]21NC(=O)NC1=O [Example 4, 4S-8-amino-6-fluoro-spiro[4H-2,3-dihydro-1-benzopyran-4,4'-imidazolidine]-2',5'-dione hydrochloride] | 40 |
